Data as given in PubChem BioAssay AID2060889 (Molecular Pharmacology Branch, DTP, NCI, 2025).

Tested on: LG0567-F671-PDC complex spheroids viability
Assay: Anticancer human tumor LG0567-F671-PDC patient-derived lung adenocarcinoma cell line growth inhibition [RAS]
Details: for IC50: curve of first compound; for viability, T/C: stronger effect = lower value
Outline: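 Agents were tested in combination matrices in half-log decrements from a top concentration at or near clinical Cmax (10 microM if undetermined). Targets were multi-cell spheroids of tumour lines plus HUVEC and MSC stromal cells.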

[1] = second compound 0.000949 µM, first compound 0.0316 µM
[2] = second compound 0.000949 µM, first compound 0.1 µM
[3] = second compound 0.000949 µM, first compound 0.316 µM
[4] = second compound 0.000949 µM, first compound 1 µM
[5] = second compound 0.000949 µM, first compound 3.16 µM
[6] = second compound 0.000949 µM, first compound 10 µM
[7] = second compound 0.003 µM, first compound 0.0316 µM
[8] = second compound 0.003 µM, first compound 0.1 µM
[9] = second compound 0.003 µM, first compound 0.316 µM
[10] = second compound 0.003 µM, first compound 1 µM
[11] = second compound 0.003 µM, first compound 3.16 µM
[12] = second compound 0.003 µM, first compound 10 µM
[13] = second compound 0.00949 µM, first compound 0.0316 µM
[14] = second compound 0.00949 µM, first compound 0.1 µM
[15] = second compound 0.00949 µM, first compound 0.316 µM
[16] = second compound 0.00949 µM, first compound 1 µM
[17] = second compound 0.00949 µM, first compound 3.16 µM
[18] = second compound 0.00949 µM, first compound 10 µM
[19] = second compound 0.03 µM, first compound 0.0316 µM
[20] = second compound 0.03 µM, first compound 0.1 µM
[21] = second compound 0.03 µM, first compound 0.316 µM
[22] = second compound 0.03 µM, first compound 1 µM
[23] = second compound 0.03 µM, first compound 3.16 µM
[24] = second compound 0.03 µM, first compound 10 µM
[25] = second compound 0.0949 µM, first compound 0.0316 µM
[26] = second compound 0.0949 µM, first compound 0.1 µM
[27] = second compound 0.0949 µM, first compound 0.316 µM
[28] = second compound 0.0949 µM, first compound 1 µM
[29] = second compound 0.0949 µM, first compound 3.16 µM
[30] = second compound 0.0949 µM, first compound 10 µM
[31] = second compound 0.3 µM, first compound 0.0316 µM
[32] = second compound 0.3 µM, first compound 0.1 µM
[33] = second compound 0.3 µM, first compound 0.316 µM
[34] = second compound 0.3 µM, first compound 1 µM
[35] = second compound 0.3 µM, first compound 3.16 µM
[36] = second compound 0.3 µM, first compound 10 µM
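Further: spheroids exposed to compound for seven days before readout.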
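Wherever IC50 is given: luminescence signal used as a proxy for viable cells.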

Cc1nc(N2CCC3(CC2)COC(C)C3N)c(CO)nc1Sc1ccnc(N)c1Cl (stereo unspecified) + CCn1c(-c2cc(N3CCN(C)CC3)cnc2C(C)OC)c2c3cc(ccc31)-c1csc(n1)CC(NC(=O)C1CC1C)C(=O)N1CCCC(N1)C(=O)OCC(C)(C)C2
IC50 (second compound 0.000949 µM): < 31.6 nM
IC50 (second compound 0.003 µM): < 31.6 nM
IC50 (second compound 0.00949 µM): < 31.6 nM
IC50 (second compound 0.03 µM): < 31.6 nM
IC50 (second compound 0.0949 µM): < 31.6 nM
IC50 (second compound 0.3 µM): < 31.6 nM
viability, T/C [1]: 13.4%
viability, T/C [2]: 9.61%
viability, T/C [3]: 5.09%
viability, T/C [4]: 3.4%
viability, T/C [5]: 2.1%
viability, T/C [6]: 1.79%
viability, T/C [7]: 6.69%
viability, T/C [8]: 5.75%
viability, T/C [9]: 2.58%
viability, T/C [10]: 2.04%
viability, T/C [11]: 1.52%
viability, T/C [12]: 1.27%
viability, T/C [13]: 3.68%
viability, T/C [14]: 3.22%
viability, T/C [15]: 1.87%
viability, T/C [16]: 1.37%
viability, T/C [17]: 1.14%
viability, T/C [18]: 1.07%
viability, T/C [19]: 2.35%
viability, T/C [20]: 1.85%
viability, T/C [21]: 1.58%
viability, T/C [22]: 1.41%
viability, T/C [23]: 1.06%
viability, T/C [24]: 0.91%
viability, T/C [25]: 2.09%
viability, T/C [26]: 1.47%
viability, T/C [27]: 1.37%
viability, T/C [28]: 0.88%
viability, T/C [29]: 0.94%
viability, T/C [30]: 0.69%
viability, T/C [31]: 1.86%
viability, T/C [32]: 1.2%
viability, T/C [33]: 0.98%
viability, T/C [34]: 0.98%
viability, T/C [35]: 0.68%
viability, T/C [36]: 0.66%

NC1c2ccccc2OC12CCN(c1cnc3c(N4CCCc5ncccc54)n[nH]c3n1)CC2 (stereo unspecified) + CCn1c(-c2cc(N3CCN(C)CC3)cnc2C(C)OC)c2c3cc(ccc31)-c1csc(n1)CC(NC(=O)C1CC1C)C(=O)N1CCCC(N1)C(=O)OCC(C)(C)C2
IC50 (second compound 0.000949 µM): < 31.6 nM
IC50 (second compound 0.003 µM): < 31.6 nM
IC50 (second compound 0.00949 µM): < 31.6 nM
IC50 (second compound 0.03 µM): < 31.6 nM
IC50 (second compound 0.0949 µM): < 31.6 nM
IC50 (second compound 0.3 µM): < 31.6 nM
viability, T/C [1]: 6.06%
viability, T/C [2]: 4.3%
viability, T/C [3]: 2.12%
viability, T/C [4]: 1.95%
viability, T/C [5]: 1.97%
viability, T/C [6]: 1.51%
viability, T/C [7]: 3.74%
viability, T/C [8]: 2.3%
viability, T/C [9]: 1.62%
viability, T/C [10]: 1.58%
viability, T/C [11]: 1.33%
viability, T/C [12]: 1.84%
viability, T/C [13]: 2.32%
viability, T/C [14]: 1.6%
viability, T/C [15]: 1.26%
viability, T/C [16]: 0.84%
viability, T/C [17]: 1.05%
viability, T/C [18]: 1.1%
viability, T/C [19]: 1.64%
viability, T/C [20]: 1.27%
viability, T/C [21]: 1.19%
viability, T/C [22]: 0.92%
viability, T/C [23]: 1.02%
viability, T/C [24]: 0.81%
viability, T/C [25]: 1.33%
viability, T/C [26]: 1.55%
viability, T/C [27]: 0.92%
viability, T/C [28]: 0.69%
viability, T/C [29]: 0.98%
viability, T/C [30]: 0.76%
viability, T/C [31]: 1.37%
viability, T/C [32]: 1.39%
viability, T/C [33]: 0.9%
viability, T/C [34]: 0.72%
viability, T/C [35]: 0.85%
viability, T/C [36]: 0.72%

Nc1ccn(C2OC(CO)C(O)C2(F)F)c(=O)n1 (stereo unspecified) + CCn1c(-c2cc(N3CCN(C)CC3)cnc2C(C)OC)c2c3cc(ccc31)-c1csc(n1)CC(NC(=O)C1CC1C)C(=O)N1CCCC(N1)C(=O)OCC(C)(C)C2
IC50 (second compound 0.000949 µM): < 3.16 nM
IC50 (second compound 0.003 µM): < 3.16 nM
IC50 (second compound 0.00949 µM): < 3.16 nM
IC50 (second compound 0.03 µM): < 3.16 nM
IC50 (second compound 0.0949 µM): < 3.16 nM
IC50 (second compound 0.3 µM): < 3.16 nM
viability, T/C (second compound 0.000949 µM, first compound 0.00316 µM): 23.8%
viability, T/C (second compound 0.000949 µM, first compound 0.01 µM): 22.4%
viability, T/C [1]: 22.1%
viability, T/C [2]: 22.6%
viability, T/C [3]: 20.7%
viability, T/C [4]: 22%
viability, T/C (second compound 0.003 µM, first compound 0.00316 µM): 11%
viability, T/C (second compound 0.003 µM, first compound 0.01 µM): 10.7%
viability, T/C [7]: 10.6%
viability, T/C [8]: 8.86%
viability, T/C [9]: 11.5%
viability, T/C [10]: 12.4%
viability, T/C (second compound 0.00949 µM, first compound 0.00316 µM): 6.32%
viability, T/C (second compound 0.00949 µM, first compound 0.01 µM): 6.32%
viability, T/C [13]: 6.59%
viability, T/C [14]: 6.78%
viability, T/C [15]: 6.01%
viability, T/C [16]: 7.27%
viability, T/C (second compound 0.03 µM, first compound 0.00316 µM): 6.63%
viability, T/C (second compound 0.03 µM, first compound 0.01 µM): 4.5%
viability, T/C [19]: 4.58%
viability, T/C [20]: 4.82%
viability, T/C [21]: 5.13%
viability, T/C [22]: 5.29%
viability, T/C (second compound 0.0949 µM, first compound 0.00316 µM): 3.22%
viability, T/C (second compound 0.0949 µM, first compound 0.01 µM): 3.54%
viability, T/C [25]: 3.82%
viability, T/C [26]: 3.99%
viability, T/C [27]: 4.28%
viability, T/C [28]: 5.17%
viability, T/C (second compound 0.3 µM, first compound 0.00316 µM): 2.59%
viability, T/C (second compound 0.3 µM, first compound 0.01 µM): 2.74%
viability, T/C [31]: 3.25%
viability, T/C [32]: 3.47%
viability, T/C [33]: 4.08%
viability, T/C [34]: 3.48%
